One compound from article PMC6533572, “Elucidation of the Differences in Cinobufotalin’s Pharmacokinetics Between Normal and Diethylnitrosamine-Injured Rats: The Role of P-Glycoprotein” (Frontiers in Pharmacology, 2019) can be followed below.

A short description of the data set: Pharmacokinetic study after i.v. injection in normal and DEN-injured rats. In kind it is in vivo, Sprague Dawley rats. The following applies: i.v. 2.5 mg/kg, two-compartment model; for AUC / C0 / clearance / half-life: male, Sprague Dawley, rat, plasma, iv; for half-life: read-out: t1/2β (converted). How it is done:
Male Sprague Dawley rats (200–220 g), used for pharmacokinetic (PK) studies, were purchased from Beijing Vital River Laboratory Animal Technology Co., Ltd. (Beijing, China). All animals were housed under standardized condition (12 h light/dark schedule), and they were kept 1 week prior to experiments for acclimation. All animal experiments were carried out in accordance with the National Institutes of Health guide for the care and use of Laboratory animals (NIH Publications No. 8023, revised 1978) and were approved by the Medical and Research Ethics Committee of College of Medicine, Henan University.
For PK studies, the rats were randomly divided into two experimental groups (10 rats for normal rats group and 20 rats for DEN-injured rats group, considering the animal casualties during the modeling process). HCC rat model was established by intraperitoneal administration of 50 mg/kg DEN two times per week ([Fuchs et al., 2014]), and the control group rats were treated with normal saline in the same way. After 14 weeks of administration, three rats were randomly selected and anesthetized by anesthesia cocktail (Ketamine 50 mg/mL, Xylazine 3.3 mg/mL and Acetopromazine 3.3 mg/mL). Then the liver was taken out and photographed to determine whether the animal model was successfully constructed.
Before PK experiment, a cannula was introduced into the jugular vein of the anesthetized rat and administrated carprofen subcutaneously after the surgery. After observation for 24 h, when the activity and excretion of rats were normal, rats were dosed with cinobufotalin at 2.5 mg/kg through jugular vein cannula. Blood samples (200 μL) were withdrawn at each pointed time (5, 10, 15, 30, 45 min, and 1, 1.5, 2, 4, 6, 8, 12, and 24 h) after dosing, and whole blood was transferred into tubes pre-treated with heparin (1000 U/mL). Then an equal volume of saline was injected into rats through jugular vein cannula immediately. The blood samples were immediately centrifuged at 4°C (8000 g, 10 min) to obtain the plasma, and the plasma samples were stored at -80°C until analysis. After sampling at the last time point, all rats were anesthetized immediately. Blood was washed out with ice-cold saline through the hepatic portal vein, and then liver tissues were removed, weighed and stored at -80°C until analysis.
Hundred microliter of plasma was transferred to a new clean tube, and samples were treated with protein precipitation assay as described in Preparation of rat plasma samples section. Then calibration curve was prepared to quantify the amount of cinobufotalin in plasma samples according to the steps as described in method validation part.
PK and statistical data analyses were performed using WinNonlin 3.3. The two-compartment model (two-compartment i.v.-Bolus, macro-constants, no lag time, first order elimination, Figure 2) was selected to obtain the PK parameters of cinobufotalin in rats. The model equation was as followed:
(3) C(t)=A∗EXP(−Alpha∗t)+B∗EXP(−Beta∗t)

Where “and” joins values, the source holds several entries; their conditions need not be identical. Equal values may be shown once. Read-outs that look alike come from different tables or passages of the source.

A word on the AUC: it is concentration integrated over time. A higher AUC goes with more exposure. In general, clearance refers to the volume of plasma or blood freed of the substance per unit of time. Low values mean inefficient removal, high ones efficient removal. Turning to `CC(=O)O[C@H]1[C@H]2O[C@]23[C@@H]2CC[C@]4(O)C[C@@H](O)CC[C@]4(C)[C@H]2CC[C@]3(C)[C@H]1c1ccc(=O)oc1` [Cinobufotalin], where the note is “DEN-injured rats”, the CL2 worked out at 135 ± 28.3 mL/min/kg, the K10 is reported as 1.0 ± 0.3^* 1/h, the K21 turned out to be 0.3 ± 0.1 h⁻¹ and the V is listed as 2.4 ± 0.6 L/kg. For the setting “DEN-injured rats”, this compound returned a V2 of 31.5 ± 10.4 L/kg. Under “DEN-injured rats, 2.5 mg/kg”, this compound registered a K12 of 3.2 ± 0.8 h⁻¹ and a t1/2α of 0.2 ± 0.1 h. Under “2.5 mg/kg, DEN-injured rats”, the AUC is 1100 ± 300 ng·h/mL, the C0 came out at 1100 ± 300 ng/mL, the clearance is 40 mL/min/kg and the half-life is 13.4 ± 5.8 h. Further, where the note is “2.5 mg/kg, normal rats”, the AUC turned out to be 2600 ± 500 ng·h/mL, the C0 was 1400 ± 400 ng/mL, the clearance is 16.7 mL/min/kg and the half-life is 13.2 ± 1.3 h. For the setting “normal rats”, this compound had a CL2 of 55 ± 6.7 mL/min/kg, a K10 of 0.5 ± 0.2 h⁻¹, a K21 of 0.3 ± 0 h⁻¹ and a V of 2.1 ± 0.6 L/kg. Where the note is “normal rats”, this compound had a V2 of 13.1 ± 1.3 L/kg and a t1/2α of 0.3 ± 0.1 h. In addition, the K12 (normal rats, 2.5 mg/kg) is 1.8 ± 0.5 h⁻¹ and 1.8 ± 0.8 h⁻¹.
